Data reported in patent US10744209B2, “Biodegradable polymeric nanoparticle conjugates and use thereof” (NEW YORK UNIVERSITY, priority 2015, dated 2020).

How the values were obtained:
[1] = cited from earlier work
[2] = system: RAW264.7 cells; experiment: RANKL-induced osteoclast differentiation, TRAP staining; type: cell-based; conditions: 50 ng/ml RANKL; CGS21680 10^−6M; four days
Protocol: Tartrate-resistant acid phosphatase (TRAP) staining was carried out. The number of TRAP-positive MNCs containing ≥3 nuclei/cell was scored.

Compound: Nc1ncnc2c1ncn2[C@@H]1O[C@H](CO)[C@@H](O)[C@H]1O [Adenosine, adenosine]
- half-life in vivo [1]: < 10 s

Compound: CCNC(=O)[C@H]1O[C@@H](n2cnc3c(N)nc(NCCc4ccc(CCC(=O)O)cc4)nc32)[C@H](O)[C@@H]1O [CGS21680]
- RANKL-induced osteoclast differentiation [2]: block
